Data as given in patent publication US6004957A, “Sulfonamide inhibitors of aspartyl protease” (Vertex Pharmaceuticals, Incorporated, priority 1998, dated 1999).
Counter-ions that a name gives are not always drawn.

Tested on: HIVIIIb in CCRM-CEM cells
Experiment: Anti-viral potency in CCRM-CEM cells acutely infected with HIVIIIb (method of Meek et al.), extracellular p24 antigen
Assay type: cell-based, HIV-1
Conditions: Human immunodeficiency virus 1, HIV replication, Table VIII, read-out: IC90 Range
Summary of the method: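 Compounds in DMSO were added to CCRM-CEM cells (CD4+ human T-cell lymphoma) acutely infected with HIVIIIb following Meek et al. Inhibition of viral replication was determined from extracellular p24 antigen concentration measured by enzyme immunoassay.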

Structure (SMILES) | IC90 [nM]
CC(C)CN(C[C@@H](O)[C@H](Cc1ccccc1)NC(=O)O[C@H]1CCOC1)S(=O)(=O)c1ccc(F)c(F)c1 [Compound 124] | 10000 to 40000
CC(=O)Nc1ccc(S(=O)(=O)N(CC2CCCC2)C[C@@H](O)[C@H](Cc2ccccc2)NC(=O)O[C@H]2CCOC2)cc1 [Compound 125, N-(4-(Cyclopentylmethyl-((2 syn,3S)-2-hydroxy-4-phenyl-3-((S)-tetrahydrofuran-3-yloxycarbonylamino)-butyl)-sulfamoyl)-phenyl)-acetamide] | 101 to 1000
C=C(C)CN(C[C@@H](O)[C@H](Cc1ccccc1)NC(=O)O[C@H]1CCOC1)S(=O)(=O)c1ccc(F)cc1 [Compound 135] | 1000 to 10000
CC(C)CN(C[C@@H](O)[C@H](Cc1ccccc1)NC(=O)O[C@H]1CCOC1)S(=O)(=O)c1cccc(Cl)c1 [Compound 138, 3-Chloro-N-((2 syn,3S)-2-hydroxy-4-phenyl-3-((S)-tetrahydrofuran-3-yloxycarbonylamino)-butyl)-N-isobutyl-benzenesulfonamide] | 101 to 1000
O=C1N[C@H](COC(=O)N[C@@H](Cc2ccccc2)[C@H](O)CN(CC2CCCC2)S(=O)(=O)c2ccc(Cl)cc2)CO1 [Compound 139, 4Chloro-N-cyclopentylmethyl-N-(2-(syn)-hydroxy-3-((2-oxazolidon-4-(S)-yl-methyl)-oxycarbonylamino)-4-phenyl-butyl)-benzenesulfonamide] | 101 to 1000
COc1ccc(S(=O)(=O)N(CC2CCCC2)C[C@@H](O)[C@H](Cc2ccccc2)NC(=O)O[C@H]2CCOC2)cc1 [Compound 140, N-cyclopentylmethyl-N-((2 syn,3S)-2-hydroxy-4-phenyl-3-((S)-tetrahydrofuran-3-yloxycarbonylamino)-butyl)-4-methoxy-benzenesulfonamide] | < 100
C=CCOC(=O)N[C@@H](Cc1ccccc1)[C@H](O)CN(CC1CCCC1)S(=O)(=O)c1ccc(OC)cc1 [Compound 141, N-((3-allyloxycarbonylamino)-(2 syn,3S)-2-hydroxy-4-phenyl-butyl)-N-cyclopentylmethyl-4-methoxy-benzenesulfonamide] | 101 to 1000
COc1ccc(S(=O)(=O)N(CC2CCCC2)C[C@@H](O)[C@H](Cc2ccccc2)NC(=O)OCc2cccnc2)cc1 [Compound 142] | < 100
CC(C)CN(C[C@@H](O)[C@H](Cc1ccccc1)NC(=O)O[C@H]1CCOC1)S(=O)(=O)c1cccnc1 [Compound 144, Pyridine-3-sulfonic acid ((2 syn,3S)-2-hydroxy-4-phenyl-3-((S)-tetrahydrofuran-3-yloxycarbonylamino)-butyl)-isobutyl-amide, trifluoroacetic acid salt] | 101 to 1000
CC(C)CN(C[C@@H](O)[C@H](Cc1ccccc1)NC(=O)O[C@H]1CCOC1)S(=O)(=O)c1ccc(-c2ccon2)s1 [Compound 145, 5-Isoxazol-3-yl-thiophene-2-sulfonic acid ((2 syn,3S)-2-hydroxy-4-phenyl-3-((S)-tetrahydrofuran-3-yloxycarbonylamino)-butyl)-isobutyl-amide] | 101 to 1000
C=CCOC(=O)N[C@@H](Cc1ccccc1)[C@H](O)CN(CC1CCCC1)S(=O)(=O)c1ccc(NC(C)=O)cc1 [Compound 146, N-(4-((3-(Allyloxycarbonylamino)-(2 syn,3S)-2-hydroxy-4-phenyl-butyl)-cyclopentylmethylsulfamoyl)-phenyl)-acetamide] | 101 to 1000
CC(=O)Nc1ccc(S(=O)(=O)N(CC2CCCC2)C[C@@H](O)[C@H](Cc2ccccc2)NC(=O)OCc2cccnc2)cc1 [Compound 147, N-(4-(Cyclopentylmethyl-((2 syn,3S)-2-hydroxy-4-phenyl-3-(pyridin-3-yl-methoxycarbonylamino)-butyl)-sulfamoyl)-phenyl)-acetamide] | 101 to 1000
O=C(N[C@@H](Cc1ccccc1)[C@H](O)CN(CC1CCCC1)S(=O)(=O)c1ccccc1)O[C@H]1CCOC1 [Compound 148, N-Cyclopentylmethyl-N-((2 syn,3S)-2-hydroxy-4-phenyl-3-((S)-tetrahydrofuran-3-yloxycarbonylamino)-butyl)-benzenesulfonamide] | < 100
O=C(N[C@@H](Cc1ccccc1)[C@H](O)CN(CC1CCCC1)S(=O)(=O)c1cccnc1)O[C@H]1CCOC1 [Compound 149, Pyridine-3-sulfonic acid cyclopentylmethyl-((2 syn,3S)-2-hydroxy-4-phenyl-3-((S)-tetrahydrofuran-3-yloxycarbonylamino)-butyl)-amide] | 101 to 1000
CC(C)CN(C[C@@H](O)[C@H](Cc1ccccc1)NC(=O)O[C@H]1CCOC1)S(=O)(=O)N1CCCCC1 [Compound 150, Piperidine-1-sulfonic acid ((2 syn,3S)-2-hydroxy-4-phenyl-3-((S)-tetrahydrofuran-3-yloxycarbonylamino)-butyl)-isobutyl-amide] | 101 to 1000
O=C(N[C@@H](Cc1ccccc1)[C@H](O)CN(CC1CCCC1)S(=O)(=O)c1ccc(OC(F)(F)F)cc1)O[C@H]1CCOC1 [Compound 151] | 1000 to 10000
C=C(COC)COC(=O)N[C@@H](Cc1ccccc1)[C@H](O)CN(CC(C)C)S(=O)(=O)c1ccc(NC(C)=O)cc1 [Compound 155, N-4-((2-(syn)-Hydroxy-3-((2-methoxymethyl-allyloxycarbonylamino)-4-(S)-phenyl-butyl)-isobutyl-sulfamoyl)-phenyl)-acetamide] | 101 to 1000
C=CCOC(=O)N[C@@H](Cc1ccccc1)[C@H](O)CN(CC1CCCC1)S(=O)(=O)c1ccc2c(c1)CCN2C(C)=O [Compound 156] | 101 to 1000
COc1ccc(S(=O)(=O)N(CC2CCCCC2)C[C@@H](O)[C@H](Cc2ccccc2)NC(=O)O[C@H]2CCOC2)cc1 [Compound 158, N-Cyclohexylmethyl-N-((2 syn,3S)-2-hydroxy-4-phenyl-3-((S)-tetrahydrofuran-3-yloxycarbonylamino)-butyl)-4-methoxy-benzenesulfonamide] | < 100
O=C(N[C@@H](Cc1ccccc1)[C@H](O)CN(CC1CCCCC1)S(=O)(=O)c1ccc(F)cc1)O[C@H]1CCOC1 [Compound 159, N-Cyclohexylmethyl-4-fluoro-N-((2 syn,3S)-2-hydroxy-4-phenyl-3-((S)-tetrahydrofuran-3-yloxycarbonylamino)-butyl)-benzenesulfonamide] | 101 to 1000
CC(=O)Nc1ccc(S(=O)(=O)N(CC2CCCCC2)C[C@@H](O)[C@H](Cc2ccccc2)NC(=O)O[C@H]2CCOC2)cc1 [Compound 160, N-(4-(Cyclohexylmethyl)-((2 syn,3S)-2-hydroxy-4-phenyl-3-((S)-tetrahydrofuran-3-yloxycarbonylamino)-butyl)-sulfamoyl-phenyl)-acetamide] | < 100
C=C(COC)COC(=O)N[C@@H](Cc1ccccc1)[C@H](O)CN(CC1CCCC1)S(=O)(=O)c1ccc(OC)cc1 [Compound 162] | 1000 to 10000
COc1ccc(S(=O)(=O)N(CC(C)C)C[C@@H](O)[C@H](Cc2ccccc2)NC(=O)OCc2ccncc2)cc1 [Compound 163, N-((2 syn,3S)-2-Hydroxy-4-phenyl-3-(pyridin-4-yl-methoxycarbonylamino)-butyl)-N-isobutyl-4-methoxy-benzenesulfonamide] | 101 to 1000
Cc1ccc(S(=O)(=O)N(CC(C)C)C[C@@H](O)[C@H](Cc2ccccc2)NC(=O)O[C@H]2CCOC2)cc1 [Compound 165, N-((2 syn,3S)-2-Hydroxy-4-phenyl-3-((syn)-tetrahydrofuran-3-yloxycarbonylamino)-butyl)-N-isobutyl-4-methyl-benzenesulfonamide] | 101 to 1000
